From US9487512B2, “(Hetero)aryl cyclopropylamine compounds as LSD1 inhibitors” (ORYZON GENOMICS, S.A., priority 2011, dated 2016)

Columns and labels:
[1] = target: Human recombinant monoamine oxidase MAO-B (Homo sapiens (Human), UniProt P27338); assay: Monoamine oxidase assay (kynuramine to 4-hydroxyquinoline fluorescence), MAO-B; type: biochemical
From the text: (§1) Human recombinant monoamine oxidase proteins MAO-A and MAO-B were purchased from Sigma Aldrich. MAOs catalyze the oxidative deamination of primary, secondary and tertiary amines. In order to monitor MAO enzymatic activities and/or their inhibition rate by inhibitor(s) of interest, a fluorescence-based (inhibitor)-screening assay was set up. 3-(2-Aminophenyl)-3-oxopropanamine (kynuramine dihydrobromide, Sigma Aldrich), a non fluorescent compound was chosen as a substrate. Kynuramine is a non-specific substrate for both MAO-A and MAO-B activities. While undergoing oxidative deamination by MAO activities, kynuramine is converted into 4-hydroxyquinoline (4-HQ), a resulting fluorescent product.
(§2) The monoamine oxidase activity was estimated by measuring the conversion of kynuramine into 4-hydroxyquinoline. Assays were conducted in 96-well black plates with clear bottom (Corning) in a final volume of 100 μL. The assay buffer was 100 mM HEPES, pH 7.5. Each experiment was performed in duplicate within the same experiment.
(§3) Clorgyline and Deprenyl (Sigma Aldrich) was used as a control for specific inhibition of MAO-A and MAO-B respectively. […]
(§4) The IC50 values of each inhibitor were calculated with GraphPad Prism Software.

[2] = target: Human recombinant LSD1 protein (Homo sapiens (Human), UniProt O60341); assay: Inhibition of LSD1 (Amplex Red H2O2 release, di-methylated H3-K4 peptide substrate)
[3] = target: Human recombinant monoamine oxidase MAO-A (Homo sapiens (Human), UniProt P21397); assay: Monoamine oxidase assay (kynuramine to 4-hydroxyquinoline fluorescence), MAO-A; type: biochemical
From the text: as §1, §2, §3, §4

Human recombinant monoamine oxidase MAO-A, sequence (P21397 whole entry): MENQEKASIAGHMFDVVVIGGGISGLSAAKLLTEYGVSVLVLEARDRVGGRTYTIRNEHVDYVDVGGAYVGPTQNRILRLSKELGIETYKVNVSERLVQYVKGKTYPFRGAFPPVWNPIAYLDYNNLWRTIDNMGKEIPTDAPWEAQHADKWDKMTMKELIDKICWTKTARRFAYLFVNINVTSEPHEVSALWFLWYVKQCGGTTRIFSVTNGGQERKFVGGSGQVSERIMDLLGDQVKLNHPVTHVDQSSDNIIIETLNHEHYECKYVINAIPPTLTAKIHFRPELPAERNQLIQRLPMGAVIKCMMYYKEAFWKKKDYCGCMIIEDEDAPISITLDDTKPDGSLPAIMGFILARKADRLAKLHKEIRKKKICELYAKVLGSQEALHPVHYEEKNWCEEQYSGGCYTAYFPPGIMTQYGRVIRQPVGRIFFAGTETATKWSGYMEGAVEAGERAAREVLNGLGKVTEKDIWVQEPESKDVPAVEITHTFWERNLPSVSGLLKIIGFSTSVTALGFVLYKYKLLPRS
Human recombinant monoamine oxidase MAO-B, sequence (P27338 whole entry): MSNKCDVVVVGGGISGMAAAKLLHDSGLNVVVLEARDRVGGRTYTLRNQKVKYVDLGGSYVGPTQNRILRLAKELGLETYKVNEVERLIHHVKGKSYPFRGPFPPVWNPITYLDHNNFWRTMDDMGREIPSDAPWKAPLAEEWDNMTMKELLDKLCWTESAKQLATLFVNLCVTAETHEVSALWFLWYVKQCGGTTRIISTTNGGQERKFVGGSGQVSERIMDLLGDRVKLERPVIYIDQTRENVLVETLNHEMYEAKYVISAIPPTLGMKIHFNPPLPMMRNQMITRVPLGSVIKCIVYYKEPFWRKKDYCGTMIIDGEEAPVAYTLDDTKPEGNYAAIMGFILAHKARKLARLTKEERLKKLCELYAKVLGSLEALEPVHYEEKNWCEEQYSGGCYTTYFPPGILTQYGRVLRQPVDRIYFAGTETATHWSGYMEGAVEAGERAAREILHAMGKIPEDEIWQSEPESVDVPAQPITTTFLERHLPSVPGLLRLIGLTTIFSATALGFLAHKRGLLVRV

Oc1ccc(C2CC2NC2CCNCC2)cc1 (stereo not drawn) [Example 23, 4-(2-(piperidin-4-ylamino)cyclopropyl)phenol] was tested, and the IC50 [1] was > 100 µM, the IC50 [2] was ~100 µM and the IC50 [3] was > 100 µM.
